The source of these data is US11357806B2, “Method of isolating sphingolipids from cordyceps and their use” (Macau University of Science and Technology, priority 2015, dated 2022).

The structures appear in SMILES notation. Read-outs that look alike come from different tables or passages of the source.

In test [1] the test system is Con A-induced splenic lymphocytes. The experiment in a line: Con A-induced primary splenocyte proliferation model (MTT, immunosuppressive activity assay). The test is classed as cell-based, ICR mice. The following applies: Mus musculus, Splenic lymphocyte, Con A 2.5 mg/L, 48 h culture, read-out: IC50 (concentration that reduced cell proliferation by 50%). As for the experimental part: (§1) Male ICR mice (Weight, 10 to 22 g) were provided by the Comparative Medicine Center of Yangzhou University. The animal studies were approved by the Animal Ethics Committee of China Pharmaceutical University. The animals were cared for according to the regulations of the Animal Committee.
(§2) ICR mice were killed by cervical dislocation, and the spleens were removed aseptically. Mononuclear cell suspensions were prepared and re-suspended in RPMI 1640 medium (containing 10% FBS). The resulting splenic lymphocytes suspensions (4×10^6 cells/mL) were cultured in 96-well plate (100 μL suspensions each well). In the control group, 100 μL 10% FBS in RPMI1640 was added into each well (five replicates of wells). In the LPS or Con A model group, 100 μL LPS or Con A (2.5 mg/L of final concentration) was added into each well (five replicates of wells). For the positive drug treatment group, 50 μL of LPS or Con A (2.5 mg/L of final concentration) and 50 μL of FTY720 with a set of final concentrations (0.001, 0.003, 0.01, 0.03, 0.1, 0.3, 1, 3 and 10 μM) were added into each well. In the test group, 50 μL of LPS or Con A (2.5 mg/L of final concentration) and 50 μL of the four SPL fractions with a set of final concentrations were added into each well. […] Then the OD490 readings were taken with a microplate reader (Bio Tek, Tigan Street Winooski, Vt., USA). […]

In test [2] the test system is LPS-induced splenic lymphocytes. Put plainly: LPS-induced primary splenocyte proliferation model (MTT, immunosuppressive activity assay). Conditions: Mus musculus, Splenic lymphocyte, LPS 2.5 mg/L, 48 h culture, read-out: IC50 (concentration that reduced cell proliferation by 50%). The test is classed as cell-based, ICR mice. As for the experimental part: as §1, §2

Turning to `CCCCCCCCc1ccc(CCC(N)(CO)CO)cc1` [FTY720], the IC50 in test [1] is 0.11 µg/mL; in test [1] (value in brackets), 0.31 µM; in test [2], 0.15 µg/mL; in test [2] (value in brackets), 0.43 µM.
